Measured values from patent US11022604B2, “Dock derived compound against laminin receptor (37 LR) and uses thereof” (Purdue Research Foundation, priority 2017, dated 2021).
Read-outs that look alike come from different tables or passages of the source.

Columns and labels:
PC-3 cells = test: BrdU incorporation assay; assay type: cell-based; conditions: read-out: IC50, inhibition of BrdU incorporation (proliferation)
Description: PC-3 cells were treated with 100 nM to 100 μM C3 for 24 hours and BrdU incorporation was quantified using HRP generated luminescence from an antibody pair recognizing BrdU (n=6, mean±SEM). C3 BrdU signal was normalized to a row where PC-3 cells were exposed to 0.5% DMSO (assay conditions). Curve obtained using GraphPAd Prism as described in the methods.
(§1) Cell Viability Screen. PC-3, Endo, TC2-Ras, SH-SY5Y, and LNCaP cells were seeded in 96-well plates at 1,500 cells per well using the Scepter cell counter (EMD Millipore). Cells were continuously incubated with compound using a 6-point dose curve: 100, 57.5, 32.4, 18.6, 10.5, and 6.0 μM in their respective complete media. Cell viability was measured by using the cell counting kit-8 (CCK-8, Dojindo). […] CCK-8 absorbance was measured at 450 nm using a GloMax Multimode Reader (Promega). Readings were performed the day after seeding to normalize for variations in cell seeding and after 96 hours of compound treatment. After each reading, CCK-8 media was removed and replaced with media containing compound as described previously. […] As described previously, an initial baseline CCK-8 reading was performed at 24 hours post seeding to correct for variations in seeding density. First, 450 nm values for each well were subtracted from media only readings to correct for baseline absorbance. […]

[1] = molecular target: T1, Peptide G (37 LR binding site for laminin, aa 161-180) (Homo sapiens, UniProt P08865); test: Intrinsic tryptophan fluorescence binding assay, Peptide G; conditions: 50 μM Peptide G, titration 0.1 to 100 μM; read-out: EC50, reduction of intrinsic tryptophan fluorescence
T1 construct: purchased United Biosystems; host or cells: chemical synthesis
T1 sequence (P08865 161-180 limits assumed): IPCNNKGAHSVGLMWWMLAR
Description: FIG. 4. Reduction of Tryptophan Fluorescence by C3. 50 μM peptide G or Scramble G was incubated with concentrations of C3 ranging from 100 nM to 100 μM. Intrinsic tryptophan fluorescence was quantified at 350 nm emission (270 nm excitation) and graphed as a function of C3 dose after subtracting baseline C3 fluorescence. GraphPad Prism was used to determine an ECso for tryptophan reduction as described in the method (n=3±SEM).
as §1, with “Cells were continuously incubated with compound using a 6-point dose curve: 100, 57.5, 32.4, 18.6, 10.5, and 6.0 μM in their respective complete media.” left out, “absorbance. Then, the 96 hour readings were normalized to their respective 24 hour readings to control for seeding variation.” for “absorbance.”

IC50 (PC-3 cells; 24 hours): 10 µM
IC50 (PC-3 cells; Homo sapiens, PC-3, 24 h): 10.1 µM
EC50 [1]: 16.1 µM
Structure (SMILES): O=C(c1cc(F)cc2c1OCOC2)N1CCN(C2c3ccccc3-c3ccccc32)CC1 [Compound C3, [4-(9h-fluoren-9-yl)piperazino](6-fluoro-4h-1,3-benzodioxin-8-yl)methanone]
